Results published in patent US6410553B1, “Benzosulfones and related compositions and methods” (Ortho-McNeil Pharmaceutical, Inc., priority 2000, dated 2002).

The compounds below were run against T1, calcium channel (3H-nitrendipine binding, rabbit heart membranes) (Oryctolagus cuniculus, UniProt P15381) (assay: Assay for Inhibition of Nitrendipine Binding). Conditions: 3H-nitrendipine (0.05-0.50 nM), 90 minutes at 4° C.
T1 construct: from tissue; host or cells: rabbit heart (crude membrane pellet)
Description: Assay for Inhibition of Nitrendipine Binding
Female, New Zealand white rabbits (1-2 kg) are sacrificed by cervical dislocation, and the heart is immediately removed, cleaned and chopped into small pieces. The tissue is homogenized in 5×times volume of 0.05M Hepes buffer, pH 7.4. The homogenate is centrifuged at 4000 g for 10 minutes, and the supernatant is re-centrifuged at 42,000×g for 90 minutes. The resulting membrane pellet is resuspended (0.7 ml/g weight) in 0.05M Hepes, pH 7.4 and stored at […] until used. Each tube of the binding assay contains ^3H-nitrendipine (0.05-0.50 nM), buffer, membranes (0.10 ml), and test compound in a total volume of 1.0 ml. After 90 minutes at 4° C., the bound nitrendipine is separated from the unbound by filtration on Whatman GF/C filters. After rinsing, the filters are dried and counted in a liquid scintillation counter.
Non-specific binding of ^3H-nitrendipine (that amount bound in the presence of excess unlabelled nitrendipine) is subtracted from the total bound to obtain specifically bound radiolabeled nitrendipine. The amount of specifically bound nitrendipine in the presence of a test compound is compared to that amount bound in the absence of a compound. A percent displacement (or inhibition) can then be calculated.

T1 sequence (P15381 whole entry, other chains not shown): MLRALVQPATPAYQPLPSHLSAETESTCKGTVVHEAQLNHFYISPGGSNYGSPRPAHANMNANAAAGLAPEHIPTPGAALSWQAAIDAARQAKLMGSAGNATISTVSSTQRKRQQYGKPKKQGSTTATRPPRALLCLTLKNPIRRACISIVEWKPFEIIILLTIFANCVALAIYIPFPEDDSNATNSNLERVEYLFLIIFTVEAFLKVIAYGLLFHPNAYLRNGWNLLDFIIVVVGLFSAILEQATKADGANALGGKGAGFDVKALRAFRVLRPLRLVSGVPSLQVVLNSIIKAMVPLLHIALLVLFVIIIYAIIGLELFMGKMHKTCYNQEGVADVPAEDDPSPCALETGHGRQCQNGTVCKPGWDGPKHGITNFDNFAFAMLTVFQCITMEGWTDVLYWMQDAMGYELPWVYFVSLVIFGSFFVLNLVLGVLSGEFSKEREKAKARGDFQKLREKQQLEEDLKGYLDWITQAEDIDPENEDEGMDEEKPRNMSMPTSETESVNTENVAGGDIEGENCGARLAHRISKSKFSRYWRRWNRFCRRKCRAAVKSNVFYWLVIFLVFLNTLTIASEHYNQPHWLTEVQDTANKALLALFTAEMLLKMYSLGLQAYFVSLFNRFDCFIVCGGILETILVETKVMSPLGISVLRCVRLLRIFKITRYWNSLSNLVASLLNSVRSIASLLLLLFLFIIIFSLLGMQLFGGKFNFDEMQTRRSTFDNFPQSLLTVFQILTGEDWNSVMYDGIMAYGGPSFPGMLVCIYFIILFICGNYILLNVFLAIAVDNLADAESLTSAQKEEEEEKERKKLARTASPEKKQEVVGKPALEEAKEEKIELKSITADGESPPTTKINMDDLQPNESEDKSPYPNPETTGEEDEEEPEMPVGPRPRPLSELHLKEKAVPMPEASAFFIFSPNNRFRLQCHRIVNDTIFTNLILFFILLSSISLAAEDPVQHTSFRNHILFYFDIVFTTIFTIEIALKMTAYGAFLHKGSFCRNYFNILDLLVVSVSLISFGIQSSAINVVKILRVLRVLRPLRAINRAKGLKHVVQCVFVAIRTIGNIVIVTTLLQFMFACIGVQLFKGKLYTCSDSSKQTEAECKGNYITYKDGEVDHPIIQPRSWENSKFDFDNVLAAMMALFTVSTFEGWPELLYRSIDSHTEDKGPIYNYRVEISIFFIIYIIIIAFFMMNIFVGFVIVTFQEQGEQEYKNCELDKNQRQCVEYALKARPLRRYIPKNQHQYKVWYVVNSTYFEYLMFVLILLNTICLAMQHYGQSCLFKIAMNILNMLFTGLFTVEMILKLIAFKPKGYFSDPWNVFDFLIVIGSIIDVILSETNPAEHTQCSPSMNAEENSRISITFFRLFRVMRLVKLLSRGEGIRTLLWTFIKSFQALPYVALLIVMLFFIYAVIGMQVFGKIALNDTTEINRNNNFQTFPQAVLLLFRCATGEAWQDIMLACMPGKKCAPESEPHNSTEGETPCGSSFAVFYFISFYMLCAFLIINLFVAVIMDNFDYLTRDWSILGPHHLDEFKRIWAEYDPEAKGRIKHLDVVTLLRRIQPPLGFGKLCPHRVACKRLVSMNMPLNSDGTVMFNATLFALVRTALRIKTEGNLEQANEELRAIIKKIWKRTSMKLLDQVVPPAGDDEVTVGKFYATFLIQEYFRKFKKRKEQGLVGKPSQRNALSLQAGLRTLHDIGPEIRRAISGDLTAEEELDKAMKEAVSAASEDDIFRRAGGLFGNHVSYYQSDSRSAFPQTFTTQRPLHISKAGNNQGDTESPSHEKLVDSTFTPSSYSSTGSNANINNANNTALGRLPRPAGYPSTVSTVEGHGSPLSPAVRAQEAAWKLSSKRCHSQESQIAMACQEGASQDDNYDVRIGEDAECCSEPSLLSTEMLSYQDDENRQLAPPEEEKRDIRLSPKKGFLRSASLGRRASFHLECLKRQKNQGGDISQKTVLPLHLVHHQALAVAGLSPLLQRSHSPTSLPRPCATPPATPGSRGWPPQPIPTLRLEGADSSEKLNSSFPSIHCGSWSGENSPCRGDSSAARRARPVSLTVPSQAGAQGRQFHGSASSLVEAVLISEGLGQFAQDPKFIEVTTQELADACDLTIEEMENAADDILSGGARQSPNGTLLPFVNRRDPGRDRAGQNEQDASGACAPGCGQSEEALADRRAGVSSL
T1 sequence (P13806 27-960 partner limits assumed, other chains not shown): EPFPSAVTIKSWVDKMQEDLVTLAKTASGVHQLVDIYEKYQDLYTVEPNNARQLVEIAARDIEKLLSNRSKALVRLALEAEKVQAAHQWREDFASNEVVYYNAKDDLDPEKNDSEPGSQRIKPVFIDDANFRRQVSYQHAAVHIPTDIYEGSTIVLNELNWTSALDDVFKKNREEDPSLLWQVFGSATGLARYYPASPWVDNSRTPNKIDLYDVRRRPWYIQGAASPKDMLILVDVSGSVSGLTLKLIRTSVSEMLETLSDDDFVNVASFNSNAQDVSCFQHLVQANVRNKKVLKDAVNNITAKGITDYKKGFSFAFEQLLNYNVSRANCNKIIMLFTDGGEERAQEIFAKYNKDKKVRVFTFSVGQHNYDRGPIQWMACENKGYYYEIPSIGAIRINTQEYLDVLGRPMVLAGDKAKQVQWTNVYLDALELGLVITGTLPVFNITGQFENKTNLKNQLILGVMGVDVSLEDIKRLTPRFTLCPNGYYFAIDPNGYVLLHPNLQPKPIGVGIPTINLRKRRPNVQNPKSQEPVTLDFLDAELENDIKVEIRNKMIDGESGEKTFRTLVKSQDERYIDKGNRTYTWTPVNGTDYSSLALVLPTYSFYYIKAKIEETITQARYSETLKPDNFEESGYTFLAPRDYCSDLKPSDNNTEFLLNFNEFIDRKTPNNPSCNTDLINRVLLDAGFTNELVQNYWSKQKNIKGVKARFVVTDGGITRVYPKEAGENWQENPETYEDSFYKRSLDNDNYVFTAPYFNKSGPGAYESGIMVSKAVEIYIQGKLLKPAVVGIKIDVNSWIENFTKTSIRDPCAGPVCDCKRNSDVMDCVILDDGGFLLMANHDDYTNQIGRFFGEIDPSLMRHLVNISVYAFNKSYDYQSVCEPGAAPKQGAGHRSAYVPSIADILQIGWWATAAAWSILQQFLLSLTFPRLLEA
T1 sequence (P13806 961-1106 partner limits assumed, other chains not shown): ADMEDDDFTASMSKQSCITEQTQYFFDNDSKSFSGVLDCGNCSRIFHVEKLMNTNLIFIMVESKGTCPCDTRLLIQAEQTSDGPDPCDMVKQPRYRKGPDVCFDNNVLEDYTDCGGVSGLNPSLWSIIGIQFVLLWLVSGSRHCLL

Compound	IC50 [nM]
COC(=O)C1=C(C)NC2=C(C1c1ccccc1Cl)S(=O)(=O)CCc1ccccc12 (centres unmarked) [Compound 1, [3]Benzothiepino[1,2-b]pyridine-3-carboxylic acid, 4-(2-chlorophenyl)-1,4,6,7-tetrahydro-2-methyl-, methyl ester, 5,5-dioxide]	612
COC(=O)C1=C(C)NC2=C(C1c1ccccc1[N+](=O)[O-])S(=O)(=O)CCc1ccccc12 (centres unmarked) [Compound 5, [3]Benzothiepino[1,2-b]pyridine-3-carboxylic acid, 1,4,6,7-tetrahydro-2-methyl-4-(2-nitrophenyl)-, methyl ester, 5,5-dioxide]	1900
COC(=O)C1=C(C)NC2=C(C1c1cccc(Cl)c1)S(=O)(=O)CCc1ccccc12 (centres unmarked) [Compound 6, [3]Benzothiepino[1,2-b]pyridine-3-carboxylic acid, 4-(3-chlorophenyl)-1,4,6,7-tetrahydro-2-methyl-, methyl ester, 5,5-dioxide]	337
COC(=O)C1=C(C)NC2=C(C1c1cccc([N+](=O)[O-])c1)S(=O)(=O)CCc1ccccc12 (centres unmarked) [Compound 8, [3]Benzothiepino[1,2-b]pyridine-3-carboxylic acid, 1,4,6,7-tetrahydro-2-methyl-4-(3-nitrophenyl)-, methyl ester, 5,5-dioxide]	261
COC(=O)C1=C(C)NC2=C(C1c1c(O)cccc1Cl)S(=O)(=O)CCc1ccccc12 (centres unmarked) [Compound 9, [3]Benzothiepino[1,2-b]pyridine-3-carboxylic acid, 4-(2-chloro-6-hydroxyphenyl)-1,4,6,7-tetrahydro-2-methyl-, methyl ester, 5,5-dioxide]	1300
CC1=C(C(=O)OCCN(C)Cc2ccccc2)C(c2ccccc2Cl)C2=C(N1)c1ccccc1CCS2(=O)=O (centres unmarked) [Compound 11, [3]Benzothiepino[1,2-b]pyridine-3-carboxylic acid, 4-(2-chlorophenyl)-1,4,6,7-tetrahydro-2-methyl-, 2-[methyl(phenylmethyl)amino]ethyl ester, 5,5-dioxide]	453

Continued, values first:

IC50 [nM]	Compound
118	CC1=C(C(=O)OCCN(C)Cc2ccccc2)C(c2cccc(Cl)c2Cl)C2=C(N1)c1ccccc1CCS2(=O)=O (centres unmarked) [Compound 2, [3]Benzothiepino[1,2-b]pyridine-3-carboxylic acid, 4-(2,3-dichlorophenyl)-1,4,6,7-tetrahydro-2-methyl-, 2-[methyl(phenylmethyl)amino]ethyl ester, 5,5-dioxide]
38	COC(=O)C1=C(C)NC2=C(C1c1cccc(Cl)c1Cl)S(=O)(=O)CCc1ccccc12 (centres unmarked) [Compound 3, [3]Benzothiepino[1,2-b]pyridine-3-carboxylic acid, 4-(2,3-dichlorophenyl)-1,4,6,7-tetrahydro-2-methyl-, methyl ester, 5,5-dioxide]
261	COC(=O)C1=C(C)NC2=C(C1c1c(F)c(F)c(F)c(F)c1F)S(=O)(=O)CCc1ccccc12 (centres unmarked) [Compound 4, [3]Benzothiepino[1,2-b]pyridine-3-carboxylic acid, 1,4,6,7-tetrahydro-2-methyl-4-(pentafluorophenyl)-, methyl ester, 5,5-dioxide]
38	CC1=C(C(=O)OCCN(C)Cc2cccs2)C(c2cccc(Cl)c2Cl)C2=C(N1)c1ccccc1CCS2(=O)=O (centres unmarked) [Compound 7, [3]Benzothiepino[1,2-b]pyridine-3-carboxylic acid, 4-(2,3-dichlorophenyl)-1,4,6,7-tetrahydro-2-methyl-, 2-[methyl(2-thienylmethyl)amino]ethyl ester, 5,5-dioxide]
99	CC1=C(C(=O)OCCN(C)Cc2cccs2)C(c2ccccc2Cl)C2=C(N1)c1ccccc1CCS2(=O)=O (centres unmarked) [Compound 10, [3]Benzothiepino[1,2-b]pyridine-3-carboxylic acid, 4-(2-chlorophenyl)-1,4,6,7-tetrahydro-2-methyl-, 2-[methyl(2-thienylmethyl)amino]ethyl ester, 5,5-dioxide]
